Numbers after ± are expanded uncertainties.
Settings: 101.33 kPa, Liquid; for speed of sound: Sing-around technique in a fixed-path interferometer; for mass density: Vibrating tube method

SMILES | speed of sound (293.15 K) | mass density (293.15 K) | speed of sound (308.15 K) | mass density (308.15 K) | speed of sound (323.15 K) | mass density (323.15 K)
CCCCn1cc[n+](C)c1.N#CN=C=[N-] [1-butyl-3-methylimidazolium dicyanamide] | 1750.2 ± 2.2 m/s | 1063.32 ± 0.97 kg/m3 | 1712.6 ± 2.2 m/s | 1053.81 ± 0.95 kg/m3 | 1667.3 ± 2.2 m/s | 1044.42 ± 0.93 kg/m3
CCCCO [butan-1-ol] | 1256.7 ± 0.8 m/s | 809.53 ± 0.12 kg/m3 | 1206.5 ± 0.8 m/s | 798.06 ± 0.12 kg/m3 | 1156.9 ± 0.8 m/s | 786.21 ± 0.12 kg/m3
CCC(C)O (stereo unspecified) [butan-2-ol] | 1229.5 ± 0.9 m/s | 806.47 ± 0.12 kg/m3 | 1175.5 ± 0.8 m/s | 793.92 ± 0.12 kg/m3 | 1120.3 ± 0.8 m/s | 780.44 ± 0.13 kg/m3
CCCCCO [pentan-1-ol] | 1292.5 ± 1.3 m/s | 814.54 ± 0.24 kg/m3 | 1242.4 ± 1.3 m/s | 803.53 ± 0.24 kg/m3 | 1192.8 ± 1.3 m/s | 792.17 ± 0.24 kg/m3
CCCO [propan-1-ol] | 1223.4 ± 0.8 m/s | 803.87 ± 0.12 kg/m3 | 1172.3 ± 0.8 m/s | 791.79 ± 0.12 kg/m3 | 1121.8 ± 0.8 m/s | 779.3 ± 0.13 kg/m3
CC(C)O [propan-2-ol] | 1157.3 ± 0.8 m/s | 785.4 ± 0.13 kg/m3 | 1104.8 ± 0.8 m/s | 772.6 ± 0.13 kg/m3 | 1051.6 ± 0.8 m/s | 759 ± 0.14 kg/m3
